The CheMixHub ionic liquid set

Experiment: xn = mol fraction of the nth substance listed

CCCC[P+](CC)(CCCC)CCCC.[Br-] + OCCOCCO
101 kPa, x1 = 0.333
Conditions	viscosity [mPa·s]
333.15 K	23.07
353.15 K	12.73

O=S(=O)([O-])C(F)(F)F.[Li+] + O
Conditions	electrical conductivity, 298.1 K [S/m]	electrical conductivity, 298.15 K [S/m]	electrical conductivity, 308.15 K [S/m]	electrical conductivity, 318.15 K [S/m]	electrical conductivity, 328.15 K [S/m]	viscosity, 298.15 K [mPa·s]	viscosity, 308.15 K [mPa·s]	viscosity, 318.15 K [mPa·s]	viscosity, 328.15 K [mPa·s]
100 kPa, x1 = 0.1122	–	7.3	8.94	10.9	12.7	3.7	2.9	2.27	1.85
100 kPa, x1 = 0.1783	–	4.63	5.73	6.99	8.17	9.2	6.9	5.3	4.2
100 kPa, x1 = 0.2388	–	2.6	3.26	4.06	4.89	21.9	16	11.1	8.6
100 kPa, x1 = 0.2541	–	1.98	2.53	3.16	3.92	31.8	22.6	15.9	12.2
100 kPa, x1 = 0.2743	–	1.56	2.04	2.59	3.2	47.2	32.9	23.9	18.1
101 kPa, x1 = 0.01944	4.69	–	–	–	–	–	–	–	–
101 kPa, x1 = 0.1527	4.69	–	–	–	–	–	–	–	–
101 kPa, x1 = 0.2649	1.34	–	–	–	–	–	–	–	–
101 kPa, x1 = 0.3106	0.51	–	–	–	–	–	–	–	–

CCCCCCCC[n+]1ccc2ccccc2c1.O=S(=O)([N-]S(=O)(=O)C(F)(F)F)C(F)(F)F + CCCCCCO
101 kPa
Conditions	viscosity [mPa·s]
318.15 K, x2 = 0.2857	48.99
338.15 K, x2 = 0.6854	6.58

C=C[n+]1ccn(CCCC)c1.N[C@@H](CO)C(=O)[O-] + O
101.3 kPa
Conditions	electrical conductivity [S/m]	viscosity [mPa·s]
293.15 K, x1 = 0.3	–	17
303.15 K, x1 = 0.1	1.37	6
303.15 K, x1 = 0.9	–	1832
323.15 K, x1 = 1	0.017	4800
333.15 K, x1 = 0.5	–	38.96
343.15 K, x1 = 1	–	1737
353.15 K, x1 = 0.1	–	4.35
353.15 K, x1 = 0.5	–	35.95
353.15 K, x1 = 1	–	1154

CC[n+]1ccn(C)c1.[I-] + CCO
Conditions	electrical conductivity [S/m]
298.15 K, 100 kPa, x1 = 0.4385	2.22

CCCCOC(C)=O + CCCCCCCCn1cc[n+](C)c1.F[B-](F)(F)F
Conditions	viscosity [mPa·s]
298.15 K, 101 kPa, x1 = 1	0.7

NCCNCCN + CCCC[n+]1ccn(C)c1.F[B-](F)(F)F
101.3 kPa
Conditions	viscosity [mPa·s]
298.15 K, x2 = 0	5.52
298.15 K, x2 = 0.3995	23.66
298.15 K, x2 = 0.5905	40.1
303.15 K, x2 = 0.2998	14.59
303.15 K, x2 = 0.4992	26.4
303.15 K, x2 = 0.5905	33.6
303.15 K, x2 = 0.6974	44.2
303.15 K, x2 = 0.8948	69.1
308.15 K, x2 = 0.2998	12.47
313.15 K, x2 = 0.1986	7.86
313.15 K, x2 = 0.3995	14.5
313.15 K, x2 = 0.4992	19.06
313.15 K, x2 = 0.6974	30.9
318.15 K, x2 = 0.051	3.95
323.15 K, x2 = 0.2998	8.65
323.15 K, x2 = 0.3995	11.33
323.15 K, x2 = 0.5905	18.26
328.15 K, x2 = 0.2998	7.68
328.15 K, x2 = 0.3995	9.9
328.15 K, x2 = 0.4992	12.63
328.15 K, x2 = 0.6974	19.4
333.15 K, x2 = 0.1986	4.89
333.15 K, x2 = 0.2998	6.68
333.15 K, x2 = 0.4992	11.19
333.15 K, x2 = 0.6974	17.57
333.15 K, x2 = 0.9496	24.5

CCCC[P+](CCCC)(CCCC)CCCC.[Br-] + OCCO
101.3 kPa, x1 = 0.333
Conditions	viscosity [mPa·s]
293.15 K	122
323.15 K	29.9

CC[n+]1ccn(C)c1.O=S(=O)([O-])C(F)(F)F + CS(C)=O + CC#N
viscosity [mPa·s], 100 kPa
Conditions	298.15 K	303.15 K	308.15 K	313.15 K	318.15 K	323.15 K
x1 = 0.1068, x2 = 0.8932	3.7	–	–	–	–	–
x1 = 0.2015, x2 = 0.7985	5.3	4.7	–	3.8	3.4	–
x1 = 0.2065, x2 = 0.6555	3.5	–	–	–	–	–
x1 = 0.2333, x2 = 0.6152	3.7	–	–	–	–	–
x1 = 0.2695, x2 = 0.5629	4.1	3.7	3.4	–	–	–
x1 = 0.3077, x2 = 0.6923	7.9	–	6.1	5.4	4.9	–
x1 = 0.3091, x2 = 0.5059	4.6	4.2	3.9	3.5	–	–
x1 = 0.3343, x2 = 0.4656	5.1	4.6	–	3.8	3.5	–
x1 = 0.361, x2 = 0.4229	5.6	5	4.6	4.2	3.8	–
x1 = 0.3948, x2 = 0	4.5	4.1	3.8	3.5	–	–
x1 = 0.4023, x2 = 0.5977	–	–	8.9	7.8	7	6.2
x1 = 0.4096, x2 = 0.3523	6.7	6	5.4	4.9	4.4	4.1
x1 = 0.4353, x2 = 0.3096	7.4	6.6	–	5.3	4.8	–
x1 = 0.4741, x2 = 0.2498	8.5	7.6	6.7	6	5.5	5
x1 = 0.4933, x2 = 0.5067	–	–	–	–	9.3	8.2
x1 = 0.498, x2 = 0	7.4	6.6	6	5.4	4.9	–
x1 = 0.5094, x2 = 0.1935	9.7	8.6	7.6	6.8	6.1	5.5
x1 = 0.5368, x2 = 0.1703	–	9.5	8.4	7.5	6.7	6
x1 = 0.5656, x2 = 0.1458	–	–	9.2	8.2	7.3	6.6
x1 = 0.595, x2 = 0	–	9.5	8.4	7.5	6.7	6
x1 = 0.5961, x2 = 0.12	–	–	–	9	8	7.2
x1 = 0.6284, x2 = 0.0927	–	–	–	–	8.9	7.9
x1 = 0.6565, x2 = 0.0845	–	–	–	–	9.7	8.6
x1 = 0.686, x2 = 0.076	–	–	–	–	–	9.4
x1 = 0.6936, x2 = 0	–	–	–	–	9.5	8.3
x1 = 0.7058, x2 = 0.0663	–	–	–	–	–	9.9
x1 = 0.9005, x2 = 0	34	–	–	–	–	–
x1 = 0.9008, x2 = 0.0992	39	–	–	–	–	–
x1 = 1, x2 = 0	46	38	–	–	–	–
